“Also recorded” adds a separate entry of the source. Marks after values point to notes of the source that are not given here.
What was measured:
β-tubulin [1] = assay: Separation of soluble and polymerized tubulins, Western blot of β-tubulin; type: cell-based, human; conditions: MDA-MB-231 cells, 30 μM, 24 h and 48 h; for formation of modified β-tubulin (second immunoreactive band of lower Mr): free tubulin fraction
Procedure: FIG. 2. Effects of CEU derivatives on microtubule depolymerization. Exponentially growing MDA-MB-231 cells were incubated in the absence or the presence of 30 μM of CEU derivatives including (A) 4-tBCEU, 4-iPCEU or 4-sBCEU for 24 and 48 h respectively; (B) 2-ECEU, 3-ECEU or 4-ECEU for 24 and 48 h; and (C) 4-tBEU, 4-iPEU, 4-sBEU, 4-tBCPU, CEU or 4-methoxyCEU for 48 h. Free tubulin and microtubule fractions were isolated and analyzed by Western blot. Data are representative of three different experiments.
Separation of soluble and polymerized tubulins from MDA-MB231 cells was carried out as described by Minotti et al. (14) with minor modifications. Briefly, after drug exposure, about 5×10^6 cells in 100-mm petri dishes were washed with PBS at 37° C. and harvested in 3 ml of PBS containing 0.4 μg/ml of taxol using a rubber policeman.
Cells were centrifuged and lysed using 250 μl of microtubule-stabilizing buffer (20 mM Tris-HCl, pH 6.8, 140 mM NaCl, 1 mM MgCl2, 2 mM EDTA, 0.5% Nonidet P-40 and 0.4 μg/ml taxol), and then transferred to 1.5 ml microcentrifuge tubes. Samples were centrifuged at 12,000×g for 10 min at 4° C. and the supernatants containing soluble tubulin were placed in separate microcentrifuge tubes containing 250 μl of 2× Laemmli sample buffer (15). Pellets containing the polymerized tubulin were resuspended in 250 μl of water, followed by two freeze/thawing cycles, and the addition of 250 μl of 2× Laemmli sample buffer. Samples were analyzed by SDS-PAGE and immunoassay was performed as described below.
(§1) Samples (1×10^5 cells) were analyzed by 10% SDS-PAGE using the Laemmli system (15). Membranes were then incubated with PBSMT (PBS, pH 7.4, 5% fat-free dry milk and 0.1% Tween-20) for 1 h at room temperature, and then with 1:500 monoclonal anti-β-tubulin (clone TUB 2.1, Sigma) or 1:400 anti (clone no. SDL.3D10, Sigma) for 1 h. […] Membranes were washed with PBSMT and incubated with 1:2500 peroxidase-conjugated anti-mouse immunoglobulin (Amersham Canada, Oakville, Canada) in PBSMT for 30 min. Detection of the immunoblot was carried out with the ECL Western blotting detection reagent kit (Amersham Canada, Oakville, Canada).

MDA-MB-231 cells [2] = assay: cells; type: cell-based, human
Procedure: (§2) Human breast carcinoma cell line, MDA-MB-231, was obtained from the American Type Culture Collection (ATCC HTB-26; Bethesda, Md.). MDA-MB-231 cells were grown in RPMI 1640 medium supplemented with 10% bovine calf serum (Hyclone, Road Logan, Utah). Wild-type Chinese Hamster Ovary cells (CHO-10001) (7), colchicine- and vinblastine-resistant (CHO-VV 3-2) (8) and taxol-resistant (CHO-TAX 5-6) cells (9) were generously provided by Dr. Fernando Cabral (University of Texas Medical School, Houston, Tex.). These cells were cultured in RPMI 1640 containing 10% fetal bovine serum. SK—N—SH human neuroblastoma cells, (ATCC HTB-11; Bethesda, Md.) were cultured in MEM medium supplemented with 2 mM L-glutamine, 1.5 g/liter sodium bicarbonate, 0.1 mM non-essential amino acids, 1 mM sodium pyruvate and 10% fetal bovine serum. Cells were cultured in a humidified atmosphere at 37° C. in 5% CO2.
(§3) Cytotoxicity was assessed using the MTT assay (3-(4,5-dimethylthiazol-2-yl)-2,5-diphenyltetrazolium bromide) as described by Carmichael et al. (12).

[3] = Kinetics of alkylation of 4-(4-nitrobenzyl)pyridine (colorimetric assay); type: physicochemical; conditions: 80° C., pH 4.3, absorbance at 570 nm, linear regression, mean ± SD
Procedure: The rate constant of alkylation (K′) of CEU derivatives and chlorambucil was evaluated by a […] assay as described by Bardos et al (13). Briefly, 1 ml of a 10% (v/v) solution of 4-(4-nitrobenzyl)pyridine in ethanol and 1 ml of 50 mM sodium acetate (pH 4.3) were added to an ethanol solution (95%) containing 400 nmol per ml of either chlorambucil or CEU and heated to 80° C. in a shaking water bath for 60, 90, 120 or 150 min. The reaction was stopped by cooling the mixtures on ice for 5 min. Then, 1.5 ml of 0.1 M KOH: ethanol (1:2, v/v) were added to the reaction mixture. Samples were vortexed for 12 sec and set aside for 2.5 min prior to reading the absorbance at 570 nm. The values were compared with those obtained using a blank sample containing all reagents except the alkylating agent.

MDA-MB-231 cells [4] = assay: Cell cycle analysis by propidium iodide flow cytometry; type: cell-based, human; conditions: CEU derivatives at 30 μM, 24 h; flow cytometry
Procedure: FIG. 1. Effect of CEU derivatives on cell cycle. Exponentially growing MDA-MB-231 cells were incubated in the absence or presence of 30 μM of either 4-tBCEU, 4-iPCEU or 4-sBCEU for 24 and 48 h, respectively, at 37° C. The cell cycle was evaluated using propidium iodide staining and flow cytometric analysis. Data are representative of three independent experiments.
Following incubation of MDA-MB-231 cells with 4-tBCEU, 4-iPCEU or 4-sBCEU, the cells were harvested, resuspended in 1 ml PBS and fixed by the addition of 2.4 ml of ice cold anhydrous ethanol. Then, 5×10^5 cells from each sample were centrifuged for 3 min at 1000×g. Cell pellets were resuspended in PBS containing 50 μg/ml of PI and 40 U/ml of ribonuclease A (Boehringer Mannheim, Laval, Calif.). Mixtures were incubated at room temperature for 30 min and cell cycle distribution was analyzed using an Epics Elite ESP flow cytometer (Coulter Corporation, Miami, Fla., USA).
The effect of CEU, namely 4-tBCEU, 4-PCEU and 4-sBCEU, on the cell cycle was analyzed. To this end, exponentially growing MDA-MB-231 cells were treated with 30 μM 4-tBCEU, 4-iPCEU or 4-sBCEU for 24 or 48 h followed by an evaluation of cell cycle distribution by flow cytometry using propidium iodide, a fluorescent DNA dye. […] Induction of mitosis blockage in prophase by CEU derivatives was confirmed by mitotic index analysis as described by Drouin (22).

CHO TAX 5-6 cells = assay: MTT cytotoxicity on taxol-resistant CHO cells expressing mutated tubulin; type: cell-based, Chinese hamster; conditions: Cricetulus griseus, CHO-TAX 5-6; taxol-resistant CHO cells, 120 h, MTT, mean ± SD; read-out: IC50 CHO TAX 5-6
Procedure: as §2, with “Wild-type Chinese Hamster Ovary cells (CHO-10001) (7), colchicine- and vinblastine-resistant (CHO-VV 3-2) (8) and taxol-resistant (CHO-TAX 5-6) cells (9) were generously provided by Dr. Fernando Cabral (University of Texas Medical School, Houston, Tex.).” left out
as §3
(§4) The cytotoxicity of 4-tBCEU, 4-iPCEU and 4-sBCEU in two CHO cell lines having differential sensitivity to antmicrotubule agents was evaluated. These cell lines are derived from parental CHO-10001 cells and express mutated tubulins.

[5] = system: CHO 10001 cells (wild-type); assay: MTT cytotoxicity on wild-type CHO cells; type: cell-based, Chinese hamster; conditions: Cricetulus griseus, CHO10001; wild-type CHO cells, 120 h, MTT, mean ± SD; read-out: IC50 CHO 10001
Procedure: as §2, with “Wild-type Chinese Hamster Ovary cells (CHO-10001) (7), colchicine- and vinblastine-resistant (CHO-VV 3-2) (8) and taxol-resistant (CHO-TAX 5-6) cells (9) were generously provided by Dr. Fernando Cabral (University of Texas Medical School, Houston, Tex.).” left out
as §3, §4

CHO VV 3-2 cells = assay: MTT cytotoxicity on vinblastine- and colchicine-resistant CHO cells expressing mutated tubulin; type: cell-based, Chinese hamster; conditions: Cricetulus griseus, CHO-VV 3-2; vinblastine- and colchicine-resistant CHO cells, 120 h, MTT, mean ± SD; read-out: IC50 CHO VV 3-2
Procedure: as §2, with “Wild-type Chinese Hamster Ovary cells (CHO-10001) (7), colchicine- and vinblastine-resistant (CHO-VV 3-2) (8) and taxol-resistant (CHO-TAX 5-6) cells (9) were generously provided by Dr. Fernando Cabral (University of Texas Medical School, Houston, Tex.).” left out
as §3, §4

β-tubulin [6] = assay: Competition with antimicrotubule agents for the site of β-tubulin alkylation; type: cell-based, human; conditions: for effect of competitor on formation of modified β-tubulin induced by CEU: MDA-MB-231 cells, 48 h, 30 μM CEU with 5 μM taxol, colchicine or vinblastine or 100 μM iodoacetamide
Procedure: FIG. 6. Identification of the site of alkylation of β-tubulin by CEU: competition with antimicrotubule agents. […] Data are representative of three different experiments.
as §1
The latter agents were used because they have well defined binding sites on β-tubulin (24-28) and because they were expected to inhibit alkylation by CEU if they shared a common binding site. […] These putative alkylation sites are two nucleophilic mercapto groups of cysteine residues at positions 239 and 354, respectively (25). To assess the possible alkylation of these mercapto residues by CEU, MDA-MB-231 cells were treated with 4-tBCEU in the presence of iodoacetamide, a specific thiol alkylating agent (31, 32). […] Similar experiments were carried out using EBI, a bifunctional alkylating agent that specifically induces cross-linking between Cys239 and Cys354 of β-tubulin (32).

Compound: 4-sec-butyl[3-(ethyl)ureido]benzene [Example 4-sBEU]
- microtubule depolymerization (β-tubulin [1]): no depolymerization
- formation of modified β-tubulin (second immunoreactive band of lower Mr) (β-tubulin [1]): no effect on β-tubulin
- cytotoxicity in words (active / inactive CEU) (MDA-MB-231 cells [2]): inactive

Compound: 4-tert-butyl[3-(2-chloropropyl)ureido]benzene [Example 4-tBCPU]
- microtubule depolymerization (β-tubulin [1]): inactive
- cytotoxicity in words (active / inactive CEU) (MDA-MB-231 cells [2]): inactive

Compound: O=C(O)CCCc1ccc(N(CCCl)CCCl)cc1 [CBL, Chlorambucil, reference compound]
- K′ (constant of alkylation of 4-(4-nitrobenzyl)pyridine) [3]: 38.9 ± 5.1^a
- IC50 (MDA-MB-231 cells [2]; Homo sapiens, MDA-MB-231, read-out: IC50 (μM) MDA-MB-231): 9.3 ± 3.5 µM

Compound: O=C(NCCCl)Nc1ccccc1 [CEU]
- microtubule depolymerization (β-tubulin [1]): inactive
- cytotoxicity in words (active / inactive CEU) (MDA-MB-231 cells [2]): inactive

Compound: COc1cc2c(c(OC)c1OC)-c1ccc(OC)c(=O)cc1[C@@H](NC(C)=O)CC2 [Colchicine, reference compound]
- accumulation of cells in G2+M (MDA-MB-231 cells [4]): G2+M block

Compound: CCc1ccccc1NC(=O)NCCCl [Example 2-ECEU, 2-ethyl[3-(2-chloroethyl)ureido]benzene]
- microtubule depolymerization (β-tubulin [1]): no depolymerization
- formation of modified β-tubulin (second immunoreactive band of lower Mr) (β-tubulin [1]): no effect on β-tubulin
- cytotoxicity in words (active / inactive CEU) (MDA-MB-231 cells [2]): inactive

Compound: CCc1cccc(NC(=O)NCCCl)c1 [Example 3-ECEU, 3ethyl[3-(2-chloroethyl)ureido]benzene]
- microtubule depolymerization (β-tubulin [1]): delayed in time
- formation of modified β-tubulin (second immunoreactive band of lower Mr) (β-tubulin [1]): delayed in time

Compound: CCc1ccc(NC(=O)NCCCl)cc1 [Example 4-ECEU, 4-ethyl(3-(2-chloroethyl)ureido]benzene]
- microtubule depolymerization (β-tubulin [1]): delayed in time
- formation of modified β-tubulin (second immunoreactive band of lower Mr) (β-tubulin [1]): delayed in time

Compound: CCNC(=O)Nc1ccc(C(C)C)cc1 [Example 4-iPEU, 4-iso-propyl[3-(ethyl)ureido]benzene]
- microtubule depolymerization (β-tubulin [1]): no depolymerization
- formation of modified β-tubulin (second immunoreactive band of lower Mr) (β-tubulin [1]): no effect on β-tubulin

Compound: COc1ccc(NC(=O)NCCCl)cc1 [Example 4-methoxyCEU, 4-methoxy[3-(2-chloroethyl)ureido]benzene]
- microtubule depolymerization (β-tubulin [1]): inactive

Compound: CCNC(=O)Nc1ccc(C(C)(C)C)cc1 [Example 4-tBEU, 4-tert-butyl[3-(ethyl)ureido]benzene]
- microtubule depolymerization (β-tubulin [1]): no depolymerization
- formation of modified β-tubulin (second immunoreactive band of lower Mr) (β-tubulin [1]): no effect on β-tubulin

Compound: CC(=O)O[C@H]1C(=O)[C@@]2(C)[C@H]([C@H](OC(=O)c3ccccc3)[C@]3(O)C[C@H](OC(=O)[C@H](O)[C@@H](NC(=O)c4ccccc4)c4ccccc4)C(C)=C1C3(C)C)[C@]1(OC(C)=O)CO[C@@H]1C[C@@H]2O [Taxol, reference compound]
- IC50 (CHO TAX 5-6 cells): 6100 nM
- IC50 [5]: 1700 ± 300 nM
- formation of modified β-tubulin (second immunoreactive band of lower Mr) (β-tubulin [1]): no such band
- IC50 (CHO VV 3-2 cells): 1100 ± 200 nM
- effect of competitor on formation of modified β-tubulin induced by CEU (β-tubulin [6]): abrogated the formation of modified β-tubulin

Compound: CC[C@]1(O)C[C@@H]2CN(CCc3c([nH]c4ccccc34)[C@@](C(=O)OC)(c3cc4c(cc3OC)N(C)[C@H]3[C@@](O)(C(=O)OC)[C@H](OC(C)=O)[C@]5(CC)C=CCN6CC[C@]43[C@@H]65)C2)C1 [Vinblastine, reference compound]
- IC50 (CHO TAX 5-6 cells): 21 ± 3 nM
- IC50 [5]: 30 ± 3 nM
- formation of modified β-tubulin (second immunoreactive band of lower Mr) (β-tubulin [1]): no such band
- IC50 (CHO VV 3-2 cells): 94 ± 3 nM
- effect of competitor on formation of modified β-tubulin induced by CEU (β-tubulin [6]): but not vinblastine, prevented formation of the additional β-tubulin band; also recorded: but not vinblastine, prevented the formation of modified β-tubulin
- accumulation of cells in G2+M (MDA-MB-231 cells [4]): G2+M block

Compound: NC(=O)CI [iodoacetamide]
- effect of pre-treatment on β-tubulin alteration induced by EBI (β-tubulin [6]; 24 h with 5 μM colchicine, 5 μM vinblastine or 100 μM iodoacetamide, then 100 μM EBI for 2 h): abrogated
- effect of competitor on formation of modified β-tubulin induced by CEU (β-tubulin [6]): completely prevented β-tubulin alkylation by 4-tBCEU

Source: US20050250853A1, “Beta-tubulin inhibitors” (priority 1999, published 2005)
